The nature of data set [1]: Hemolytic activity against mouse erythrocytes. The data set is classed as cell-based. Particulars: CD-1, mouse erythrocyte suspension, pH 7.4, 24 h at 37 °C, read-out: Cytotoxicity EC50, Erhythrocytes (hemolytic activity). As to the method:
Blood was taken from CD-1 mice (18–20 g). The mice were anesthetized with diethyl ether, their chests were rapidly opened, and blood was collected in cold (4 °C) 10 mM phosphate-buffered saline, pH 7.4 (PBS) without anticoagulant. Erythrocytes were washed 3 times in PBS using at least 10 vol. of washing solution by centrifugation (2000 rpm) for 5 min. Erythrocytes were used at a concentration that provided an optical density of 1.0 at 700 nm for a non-hemolyzed sample. Then, 20 μL of a water solution of test substance with a fixed concentration was added to a well of a 96-well plate containing 180 μL of the erythrocyte suspension. Erythrocyte suspension was incubated with substances for 24 h at 37 °C. After that, the optical density of the obtained solutions was measured and ED50 for hemolytic activity of each compound was calculated.

Data set [2] is described as follows: Cytotoxic activity against ascite form of mouse Ehrlich carcinoma cells (nonspecific esterase / MTT assay). It counts as cell-based. Particulars: ascite form of mouse Ehrlich carcinoma cells; read-out: Cytotoxicity EC50, Ehrlich carcinoma. How it is done:
(§1) The museum tetraploid strain of murine ascite Ehrlich carcinoma cells from the All-Russian Oncology Center (Moscow, Russia) was used. The cells were separated from the ascites, which were collected on day 7 after inoculation in mouse CD-1 line. The cells were washed of the ascites triply and resuspended in RPMI-1640 medium containing 8 μg/mL gentamicin (BioloT, St-Petersburg, Russia). Neuroblastoma Neuro 2A cells were cultured in DMEM medium containing 10% fetal bovine serum (FBS), (BioloT, St-Petersburg, Russia) and normal epithelial JB-6 cells were cultured in DMEM medium containing 5% fetal bovine serum (FBS), (BioloT, St-Petersburg, Russia) and 1% penicillin/streptomycine (Invitrogen). The HT-29 (ATCC # HTB-38) human colon cancer cell line was grown in monolayer in McCoy’s 5A medium supplemented with 10% (v/v) heat-inactivated FBS, 2 mM L-glutamine, and 1% penicillin-streptomycin in a humidified atmosphere containing 5% CO2. Cells were maintained in a sterile environment and kept in an incubator at 5% CO2 and 37 °C to promote growth. HT-29 cells were sub-cultured every 3–4 days by rinsing with phosphate buffered saline (PBS), adding trypsin to detach the cells from the tissue culture flask, and transferring 10%–20% of the harvested cells to a new flask containing fresh growth media.
(§2) Cytotoxic activity against ascite form of mouse Ehrlich carcinoma cells was investigated by nonspecific esterase activity assay. In total, 10µL of the test substance solution and 100 μL of the cell suspension were placed into each well of a 96-well microplate. The plate was incubated in a CO2 incubator at 37 °C for 1 or 24 h. A stock solution of the probe fluorescein diacetate (FDA; Sigma, St. Louis, MO, USA) in DMSO (1 mg/mL) was prepared. After incubation of the cells with test compounds, 10 μL of FDA solution (50 μg/mL) was added to each well and the plate was incubated at 37 °C for 15 min. Cells were washed with PBS, and fluorescence was measured with a Fluoroskan Ascent plate reader (Thermo Labsystems, Helsinky, Finland) at λex = 485 nm and λem = 518 nm. All experiments were repeated in triplicate. Cytotoxic activity was expressed as the percent of cell viability. Nonspecific esterase activity assay has been used for determination of cytotoxicity against neuroblastoma Neuro 2A and normal epithelial JB-6 cells.
The solutions of tested substances in different concentrations (20 µL) and cell suspension (200 µL) were added in wells of 96-well plate and incubated over night at 37 °C and 5% CO2. After incubation, the cells were sedimented by centrifugation, 200 µL of medium from each well were collected, and 100 µL of pure medium were added. Then, 10 µL of MTT solution […] (Sigma, St. Louis, MO, USA) were added in each well. The plate was incubated for 4 h, after which 100 µL SDS-HCl were added to each well, and the plate was incubated at 37 °C for 4–18 h. Optical density was measured at 570 nm and 630–690 nm. Cytotoxic activity of the substances was calculated as the concentration that caused 50% metabolic cell activity inhibition (IC50). The MTT assay has been used for determination of cytotoxic activity against Ehrlich carcinoma cells.

Data set [3] is described as follows: Cytotoxicity against neuroblastoma Neuro 2A cells (nonspecific esterase activity assay). It counts as cell-based, mouse. Particulars: mouse neuroblastoma Neuro 2A cells. How it is done: as §1, §2
The test system of data set [4] is human colorectal adenocarcinoma HT-29 cells. Description: MTS assay, cell viability of HT-29 cells. Particulars: Homo sapiens, 0–20 μM, 24 h. It counts as cell-based. How it is done:
as §1
The HT-29 cells (1.0 × 10^4/well) were seeded in 96-well plates for 24 h at 37 °C in 5% CO2 incubator. The cells were treated with the tested substances at concentrations range from 0 to 20 μM for an additional 24 h. Subsequently, cells were incubated with 15 μL MTS reagent for 3 h and the absorbance in each well was measured at 490/630 nm using microplate reader “Power Wave XS” (Bio Tek, Winooski, VT, USA). All the experiments were repeated three times, and the mean absorbance values were calculated. The results are expressed as the percentage of inhibition that produced a reduction in absorbance by compound’s treatment compared to the non-treated cells (control).
Background: Formazan colour is commonly taken as a measure of viable cells.

Data set [5] shares this test system. Description: Soft agar assay, colony formation and growth of HT-29 cells. The data set is classed as cell-based. Particulars: Homo sapiens, 336 h, 0–10 μM, 14 days, read-out: Soft Agar Assay ICCF50 (inhibition of colony formation). How it is done:
as §1
The HT-29 cells (8.0 × 10^3) were seeded in 6-well plate and treated with the tested compounds at concentrations range 0–10 μM in 1 mL of 0.3% Basal Medium Eagle (BME) agar containing 10% FBS, 2mM L-glutamine, and 25 μg/mL gentamicin. The cultures were maintained at 37 °C in a 5% CO2 incubator for 14 days, and the cell’s colonies were scored using a microscope “Motic AE 20” (Scientific Instrument Company, Campbell, CA, USA) and the Motic Image Plus version 2.0 (Scientific Instrument Company, Campbell, CA, USA) computer program.

Data set [6] can be described thus: Cytotoxicity against normal epithelial JB-6 cells (nonspecific esterase activity assay). It counts as cell-based, mouse. As to conditions: mouse, normal epithelial JB-6 cells. How it is done: as §1, §2
Data set [7] concerns mouse neuroblastoma Neuro 2A cells. Description: Cytotoxicity against neuroblastoma Neuro 2A cells (nonspecific esterase activity assay). The data set is classed as cell-based. Particulars: Neuro 2A cells. How it is done:
as §1, §2

The test system of data set [8] is normal epithelial JB-6 cells. Put plainly: Cytotoxicity against normal epithelial JB-6 cells (nonspecific esterase activity assay). The data set is classed as cell-based, mouse. Particulars: JB-6 cells. How it is done: as §1, §2

Where a name gives a salt, the structure may show the parent alone.

The term EC50 denotes the concentration needed to bring the measured effect to its halfway point.

With `C=C(C)CCC[C@]1(C)OC(=O)[C@]23CC=C4[C@@H](CC[C@H]5C(C)(C)[C@@H](O[C@@H]6OC[C@@H](O)[C@H](O)[C@H]6O[C@@H]6O[C@H](C)[C@@H](O[C@@H]7O[C@H](COS(=O)(=O)O)[C@@H](O)[C@H](O[C@@H]8O[C@H](CO)[C@@H](O)[C@H](OC)[C@H]8O)[C@H]7O)[C@H](O)[C@H]6O)CC[C@]45C)[C@]2(C)CC(=O)[C@@H]31` [Psolusoside E (2), 3β-O-[3-O-methyl-β-D-glucopyranosyl-(1→3)-6-O-sodium-sulfate-β-D-glucopyranosyl-(1→4)-β-D-quinovopyranosyl-(1→2)-β-D-xylopyranosyl]-16-ketoholosta-9(11),25-diene], in data set [1], the EC50 at 24 h worked out at 0.23 µM. Also, the figures for the EC50 in data set [2] and in data set [3] were 55.8 µM and 3.96 µM, respectively. Also, the results for the IC50 in data set [4] and in data set [5] were greater than 20 µM and 0.1 ± 0.03 µM, respectively.
On to `C=C(C)CCC[C@]1(C)OC(=O)[C@]23CC=C4[C@@H](CC[C@H]5C(C)(C)[C@@H](O[C@@H]6OC[C@@H](O)[C@H](O)[C@H]6O[C@@H]6O[C@H](C)[C@@H](O[C@@H]7O[C@H](CO)[C@@H](O)[C@H](O[C@@H]8O[C@H](COS(=O)(=O)O)[C@@H](O)[C@H](OC)[C@H]8O)[C@H]7O)[C@H](O)[C@H]6O)CC[C@]45C)[C@]2(C)CC(=O)[C@@H]31` [Psolusoside F (3), 3β-O-[6-O-sodium-sulfate-3-O-methyl-β-D-glucopyranosyl-(1→3)-β-D-glucopyranosyl-(1→4)-β-D-quinovopyranosyl-(1→2)-β-D-xylopyranosyl]-16-ketoholosta-9(11),25-diene], for which, in data set [1], the EC50 at 24 h was 2.8 µM. For the same compound, the EC50 in data set [2] came out at 96.2 µM; in data set [3], 10.8 µM; in data set [6], 23.8 µM. In addition, the IC50 in data set [4] is greater than 20 µM; in data set [5] it was 0.5 ± 0.03 µM.
In the case of `C=C(C)CCC[C@]1(C)OC(=O)[C@]23CC=C4[C@@H](CC[C@H]5C(C)(C)[C@@H](O[C@@H]6OC[C@@H](O)[C@H](O)[C@H]6O[C@@H]6O[C@H](CO)[C@@H](O[C@@H]7O[C@H](COS(=O)(=O)O)[C@@H](O)[C@H](O[C@@H]8O[C@H](COS(=O)(=O)O)[C@@H](O)[C@H](OC)[C@H]8O)[C@H]7O)[C@H](O)[C@H]6O)CC[C@]45C)[C@]2(C)CC(=O)[C@@H]31` [Psolusoside G (4), 3β-O-[6-O-sodium-sulfate-3-O-methyl-β-D-glucopyranosyl-(1→3)-6-O-sodium-sulfate-β-D-glucopyranosyl-(1→4)-β-D-glucopyranosyl-(1→2)-β-D-xylopyranosyl]-16-ketoholosta-9(11),25-diene], the concentration giving a half-maximal response (EC50) at 24 h in data set [1] stood at 4.2 µM. Further, the EC50 was 98.3 µM in data set [2], 7.3 µM in data set [3] and greater than 100 µM in data set [6]. For the same compound, the “activity against Neuro 2A cells (in words)” value in data set [7] was “high activity”. Also, in data set [8], the “cytotoxicity against normal JB-6 cells (in words)” value is “not cytotoxic”.
Turning to `C=C(C)CCC[C@]1(C)OC(=O)[C@]23CC[C@@H]4C(=CC[C@H]5C(C)(C)[C@@H](O[C@@H]6OC[C@@H](O)[C@H](O)[C@H]6O[C@@H]6O[C@H](CO)[C@@H](O[C@@H]7O[C@H](COS(=O)(=O)O)[C@@H](O)[C@H](O)[C@H]7O)[C@H](O)[C@H]6O)CC[C@]45C)[C@]2(C)CC[C@@H]31` [Psolusoside H1 (6), 3β-O-[6-O-sodium-sulfate-β-D-glucopyranosyl-(1→4)-β-D-glucopyranosyl-(1→2)-β-D-xylopyranosyl]-holosta-7,25-diene], the concentration giving a half-maximal response (EC50) at 24 h in data set [1] amounted to 2.7 µM. For the same compound, the values for the EC50 in data set [2], in data set [3] and in data set [6] were 92.5 µM, 10.7 µM and 32.3 µM, respectively. Further, the IC50 in data set [4] is greater than 20 µM; in data set [5], 9 ± 0.3 µM.
Regarding `C=C(C)CCC[C@]1(C)OC(=O)[C@]23CC[C@@H]4C(=CC[C@H]5C(C)(C)[C@@H](O[C@@H]6OC[C@@H](O)[C@H](O)[C@H]6O[C@@H]6O[C@H](CO)[C@@H](O[C@@H]7O[C@H](COS(=O)(=O)O)[C@@H](O)[C@H](O)[C@H]7O)[C@H](O)[C@H]6O)CC[C@]45C)[C@]2(C)CC(=O)[C@@H]31` [Psolusoside H (5), 3β-O-[6-O-sodium-sulfate-β-D-glucopyranosyl-(1→4)-β-D-glucopyranosyl-(1→2)-β-D-xylopyranosyl]-16-ketoholosta-7,25-diene], the EC50 at 24 h in data set [1] stood at 2.5 µM. Also, the EC50 in data set [2] is greater than 100 µM; in data set [3] it was 47.5 µM; in data set [6], 43.2 µM. The figures for the IC50 in data set [4] and in data set [5] were greater than 20 µM and greater than 10 µM, respectively.
Turning to `C=C(C)CCC[C@](C)(OC(C)=O)[C@H]1[C@@H]2C[C@@]3(C)C4=CC[C@H]5C(C)(C)[C@@H](O[C@@H]6OC[C@@H](O[C@@H]7O[C@H](CO)[C@@H](O)[C@H](O)[C@H]7OS(=O)(=O)O)[C@H](O)[C@H]6O[C@@H]6O[C@H](CO)[C@@H](O[C@@H]7O[C@H](COS(=O)(=O)O)[C@@H](O)[C@H](O)[C@H]7O)[C@H](O)[C@H]6O)CC[C@]5(C)[C@@H]4CC[C@]13C(=O)O2` [psolusoside B (1), 3β-O-{6-O-sodium sulfate-β-D-glucopyranosyl-(1→4)-β-D-glucopyranosyl-(1→2)-[2-O-sodium sulfate-β-D-glucopyranosyl-(1→4)]-β-D-xylopyranosyl}-9βH,20(S)-acetoxylanosta-7,25-diene-18(16)-lactone], the IC50 is greater than 20 µM in data set [4] and greater than 10 µM in data set [5].
